Experimental data as given in patent US20230234943A1, “TREX1 INHIBITORS AND USES THEREOF” (Tempest Therapeutics, Inc., priority 2020, published 2023).

Target: T1, Human TREX1 enzyme (amino acids 1-242) (Homo sapiens, UniProt Q9NSU2)
T1 construct: Human TREX1 enzyme (amino acids 1-242)
T1 sequence (Q9NSU2 1-242): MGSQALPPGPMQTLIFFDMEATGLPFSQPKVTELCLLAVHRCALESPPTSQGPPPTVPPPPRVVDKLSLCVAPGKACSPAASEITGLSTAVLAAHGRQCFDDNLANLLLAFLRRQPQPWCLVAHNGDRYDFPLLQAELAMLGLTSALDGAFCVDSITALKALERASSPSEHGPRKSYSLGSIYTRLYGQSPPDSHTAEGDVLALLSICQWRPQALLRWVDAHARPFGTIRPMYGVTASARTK
Experiment: Human TREX1 enzymatic assay with dsDNA native oligonucleotide (Picogreen fluorescence)
Format: biochemical
Conditions: 2 mM dithiothreitol in assay buffer; 50 nM dsDNA oligonucleotide; 30 min preincubation at 25° C.; read-out: TREX1/Human + DTT IC50 AVG
Experimental: Example A. Human TREX1 Enzymatic Assay with dsDNA Native Oligonucleotide
Human TREX1 enzyme (amino acids 1-242) was diluted in assay buffer (20 mM Tris pH 7.7, 5 mM MgCl2, 0.01% human serum albumin, 0.01% Brij™-35, 2 mM dithiothreitol) to a final concentration of 0.8 nM to 0.16 nM and added to a 96-well low-binding polypropylene plate. Test compounds were diluted in DMSO to 50× concentration (final DMSO concentration in reaction mixture of 2%) and added to the wells with a concentration ranging from 300 μM to 13 nM or 30 μM to 1.5 nM. The reaction mixtures were incubated for 30 minutes at 25° C. and a solution of annealed dsDNA oligonucleotide (5′-[…]-3′ and Comp: 5′-[…]-3′) was added to a final concentration of 50 nM. The reaction mixtures were incubated at 25° C. for 5-15 minutes and subsequently quenched by transferring part of the assay reaction to a solution of 100 mM ethylenediaminetetraacetic acid and 1:100 Picogreen™ (final concentration of […]) in a black plate with an opaque bottom. The fluorescence ([…]) was measured using a Molecular Devices SpectraMax plate reader. Wells containing oligonucleotide but no TREX1 enzyme were used as negative controls. Wells containing oligonucleotide, TREX1 enzyme, and DMSO were used as positive controls.

| Structure (SMILES) | IC50 |
| --- | --- |
| COc1cc(-c2nc3cc(N4CCN(C(=O)c5cccc(-c6ccccc6)c5)CC4)ccc3[nH]2)cc(O)c1O [Example 113, [1,1′-biphenyl]-3-yl(4-(2-(3,4-dihydroxy-5-methoxyphenyl)-1H-benzo[d]imidazol-5-yl)piperazin-1-yl)methanone] | > 100 µM |
| COc1cc(-c2nc3cc(-c4ccccc4)ccc3[nH]2)cc(O)c1O [Example 69, 3-methoxy-5-(5-phenyl-1H-benzo[d]imidazol-2-yl)benzene-1,2-diol] | > 100 µM |
| COc1cc(-c2nc3ccccc3n2C2CN(C(C)=O)C2)c(C)c(O)c1O [Example 321, 1-(3-(2-(3,4-dihydroxy-5-methoxy-2-methylphenyl)-1H-benzo[d]imidazol-1-yl)azetidin-1-yl)ethan-1-one] | > 100 µM |
| COc1cc(-c2nc3cc(N4CCN(C(=O)c5ccc(Cl)cc5)CC4)ccc3[nH]2)cc(O)c1O [Example 84, (4-chlorophenyl)(4-(2-(3,4-dihydroxy-5-methoxyphenyl)-1H-benzo[d]imidazol-5-yl)piperazin-1-yl)methanone] | > 100 µM |
| COc1cc(-c2nc3cc(N4CCOCC4)cnc3[nH]2)cc(O)c1O [Example 70, 3-methoxy-5-(6-morpholino-3H-imidazo[4,5-b]pyridin-2-yl)benzene-1,2-diol] | > 100 µM |
| COc1cc(-c2nc3c(C)ncnc3[nH]2)cc(O)c1O [Example 41, 3-methoxy-5-(6-methyl-9H-purin-8-yl)benzene-1,2-diol] | > 100 µM |
| COc1cc(-c2nc3ccncc3n2C)c(-c2cccnc2)c(O)c1O [Example 93, 6-methoxy-4-(3-methyl-3H-imidazo[4,5-c]pyridin-2-yl)-3-(pyridin-3-yl)benzene-1,2-diol] | > 100 µM |
| Cc1c(-c2nc3ccccc3n2C2CCC2)cc(OC(C)C)c(O)c1O [Example 290, 4-(1-cyclobutyl-1H-1,3-benzodiazol-2-yl)-3-methyl-6-(propan-2-yloxy)benzene-1,2-diol] | 10 to 100 µM |
| COc1cc(-c2nc3cc(N4CCN(C(=O)c5ccncc5)CC4)ccc3[nH]2)cc(O)c1O [Example 96, (4-(2-(3,4-dihydroxy-5-methoxyphenyl)-1H-benzo[d]imidazol-5-yl)piperazin-1-yl)(pyridin-4-yl)methanone] | 10 to 100 µM |
| COc1cc(-c2nc3cc(N4CCN(C5CC5)CC4)ccc3[nH]2)cc(O)c1O [Example 274, 5-(5-(4-cyclopropylpiperazin-1-yl)-1H-benzo[d]imidazol-2-yl)-3-methoxybenzene-1,2-diol] | > 100 µM |
| COc1cc(-c2nc3cc(N4CCN(C(=O)c5ccc(C(C)(C)C)cc5)CC4)ccc3[nH]2)cc(O)c1O [Example 126, (4-(tert-butyl)phenyl)(4-(2-(3,4-dihydroxy-5-methoxyphenyl)-1H-benzo[d]imidazol-5-yl)piperazin-1-yl)methanone] | > 100 µM |
| COc1cc(-c2nc3cc(N4CCCC4=O)ccc3n2C2COC2)c(F)c(O)c1O [Example 191, 1-(2-(2-fluoro-3,4-dihydroxy-5-methoxyphenyl)-1-(oxetan-3-yl)-1H-benzo[d]imidazol-5-yl)pyrrolidin-2-one] | 10 to 100 µM |
| COc1cc(-c2nc3cc(N4CCN(C(=O)c5cccnc5)CC4)ccc3[nH]2)cc(O)c1O [Example 32, (4-(2-(3,4-dihydroxy-5-methoxyphenyl)-1H-benzo[d]imidazol-5-yl)piperazin-1-yl)(pyridin-3-yl)methanone] | 10 to 100 µM |
| COc1cc(-c2nc3ccccc3n2C2CN(C)C2)c(C)c(O)c1O [Example 320, 6-methoxy-3-methyl-4-(1-(1-methylazetidin-3-yl)-1H-benzo[d]imidazol-2-yl)benzene-1,2-diol] | > 100 µM |

More lines, now with the values ahead:

| IC50 | Structure (SMILES) |
| --- | --- |
| ≤ 0.1 µM | COc1cc(-c2nc3cc(N4CCN(C)C(=O)C4)ccc3n2C2(C)COC2)c(F)c(O)c1O [Example 278, 4-(2-(2-fluoro-3,4-dihydroxy-5-methoxyphenyl)-1-(3-methyloxetan-3-yl)-1H-benzo[d]imidazol-5-yl)-1-methylpiperazin-2-one] |
| 1 to 10 µM | COc1cc(-c2nc3cc(N4CCN(C(=O)c5ccccc5)CC4)ccc3[nH]2)cc(O)c1O [Example 31, (4-(2-(3,4-dihydroxy-5-methoxyphenyl)-1H-benzo[d]imidazol-5-yl)piperazin-1-yl)(phenyl)methanone] |
| ≤ 0.1 µM | COc1cc(-c2nc3ccc(C(=O)NCC4(F)CC4)cc3n2C2(C)COC2)c(F)c(O)c1O [Example 263, 2-(2-fluoro-3,4-dihydroxy-5-methoxyphenyl)-N-[(1-fluorocyclopropyl)methyl]-1-(3-methyloxetan-3-yl)-1H-1,3-benzodiazole-6-carboxamide.] |
| 10 to 100 µM | COc1cc(-c2nc3cc(S(=O)(=O)Nc4ccccc4)ccc3n2C2COC2)cc(O)c1O [Example 46, 2-(3,4-dihydroxy-5-methoxyphenyl)-1-(oxetan-3-yl)-N-phenyl-1H-benzo[d]imidazole-5-sulfonamide] |
| 1 to 10 µM | COc1cc(-c2nc3ccc(C(=O)N(C)C)cc3n2C2(C)COC2)c(F)c(O)c1O [Example 245, 2-(2-fluoro-3,4-dihydroxy-5-methoxyphenyl)-N,N-dimethyl-1-(3-methyloxetan-3-yl)-1H-benzo[d]imidazole-6-carboxamide] |
| 1 to 10 µM | COc1cc(-c2nc3ccccc3n2C2(C)CCOC2)c(C)c(O)c1O (stereo not shown) [Example 158, 6-methoxy-3-methyl-4-(1-(3-methyltetrahydrofuran-3-yl)-1H-benzo[d]imidazol-2-yl)benzene-1,2-diol] |
| 0.1 to 1 µM | COc1cc(-c2nc3ccc(C(=O)NC4CCN(C)CC4)cc3n2C2(C)COC2)c(F)c(O)c1O [Example 260, 2-(2-fluoro-3,4-dihydroxy-5-methoxyphenyl)-1-(3-methyloxetan-3-yl)-N-(1-methylpiperidin-4-yl)-1H-1,3-benzodiazole-6-carboxamide] |
| 10 to 100 µM | COc1cc(-c2nc3cc(N4CCN(C(=O)c5ccccn5)CC4)ccc3[nH]2)cc(O)c1O [Example 97, (4-(2-(3,4-dihydroxy-5-methoxyphenyl)-1H-benzo[d]imidazol-5-yl)piperazin-1-yl)(pyridin-2-yl)methanone] |
| ≤ 0.1 µM | COc1cc(-c2nc3ccc(C(=O)Nc4ccncc4)cc3n2C2(C)COC2)c(F)c(O)c1O [Example 248, 2-(2-fluoro-3,4-dihydroxy-5-methoxyphenyl)-1-(3-methyloxetan-3-yl)-N-(pyridin-4-yl)-1H-1,3-benzodiazole-6-carboxamide] |
| 0.1 to 1 µM | COc1cc(-c2nc3ccc(C(=O)N4CCC4)cc3n2C2(C)COC2)c(F)c(O)c1O [Example 177, 4-[6-(azetidine-1-carbonyl)-1-(3-methyloxetan-3-yl)-1H-1,3-benzodiazol-2-yl]-3-fluoro-6-methoxybenzene-1,2-diol] |
| 1 to 10 µM | COc1c(O)c(O)cc(-c2nc3cc(N4CCC4)ccc3n2C2COC2)c1F [Example 298, 5-(5-(azetidin-1-yl)-1-(oxetan-3-yl)-1H-benzo[d]imidazol-2-yl)-4-fluoro-3-methoxybenzene-1,2-diol] |
| 0.1 to 1 µM | COc1cc(-c2nc3cc(N4CCCC4=O)ccc3n2C2(C)COC2)c(F)c(O)c1O [Example 190, 1-[2-(2-fluoro-3,4-dihydroxy-5-methoxyphenyl)-1-(3-methyloxetan-3-yl)-1H-1,3-benzodiazol-5-yl]pyrrolidin-2-one] |
| ≤ 0.1 µM | COc1cc(-c2nc3ccc(N4CCOC4=O)cc3n2C2(C)COC2)c(F)c(O)c1O [Example 276, 3-(2-(2-fluoro-3,4-dihydroxy-5-methoxyphenyl)-1-(3-methyloxetan-3-yl)-1H-benzo[d]imidazol-6-yl)oxazolidin-2-one] |
| 1 to 10 µM | COc1cc(-c2nc3cc(N4CC(O)C4)ccc3n2C2COC2)c(F)c(O)c1O [Example 294, 3-fluoro-4-(5-(3-hydroxyazetidin-1-yl)-1-(oxetan-3-yl)-1H-benzo[d]imidazol-2-yl)-6-methoxybenzene-1,2-diol] |
| 1 to 10 µM | O=C(O)c1cc(F)c(-c2nc3cc(N4CCC4)ccc3[nH]2)cc1O [Example 150, 4-(5-(azetidin-1-yl)-1H-benzo[d]imidazol-2-yl)-5-fluoro-2-hydroxybenzoic acid] |
| 1 to 10 µM | COc1cc(-c2nc3cc(N4CCN(C(=O)c5ccccc5Cl)CC4)ccc3[nH]2)cc(O)c1O [Example 111, (2-chlorophenyl)(4-(2-(3,4-dihydroxy-5-methoxyphenyl)-1H-benzo[d]imidazol-5-yl)piperazin-1-yl)methanone] |
| ≤ 0.1 µM | COc1cc(-c2nc3cc(N4CCOC4=O)ccc3n2C2(C)COC2)c(F)c(O)c1O [Example 271, 3-(2-(2-fluoro-3,4-dihydroxy-5-methoxyphenyl)-1-(3-methyloxetan-3-yl)-1H-benzo[d]imidazol-5-yl)oxazolidin-2-one] |
